This is an account of results in patent US20240360153A1 (Regeneron Pharmaceuticals, Inc., priority 2023, published 2024).

Series [1] deals with S6K1 (Thr389) phosphorylation (mTORC1 activity) in wild-type (WT) 293T cells. The experiment in a line: Inhibition of S6K1 (Thr389) phosphorylation in wild-type 293T cells (ELISA). It counts as cell-based, human. Particulars: for pIC50: Homo sapiens, HEK-293T, 2 h, wild-type 293T cells, 2 hours treatment; for extent of inhibition of S6K1 (Thr389) phosphorylation / fold lower potency compared with RAD001 (by IC50): wild-type cells; for extent of inhibition of S6K1 (Thr389) phosphorylation: with increasing concentrations. The essentials: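 WT 293T cells in DMEM + 10% FBS, grown 24 h to ~80% confluence, then treated 2 h at 37 °C in duplicate with compounds over an 8–11-point range from 0.001 pM to 10 μM. DMSO vehicle served as negative control. Phospho-S6K1 (Thr389) measured by ELISA.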
For orientation: In an ELISA, binding on a coated surface is turned into a signal by an enzyme label.

For series [2], the system named is S6K1 (Thr389) phosphorylation (mTORC1 activity) in FKBP12 knock-out 293T cells. The series can be described thus: Inhibition of S6K1 (Thr389) phosphorylation in FKBP12 knock-out 293T cells (ELISA). It counts as cell-based, human. The settings on record: for inhibition of S6K1 (Thr389) phosphorylation in the absence of FKBP12 (in words): FKBP12 knock-out cells; for selectivity for FKBP12 compared with RAD001 (in words): wild-type versus FKBP12 knock-out cells. The essentials:
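CRISPR-generated FKBP12 knock-out HEK293T cells, alongside wild-type, were treated in duplicate for 2 hours at 37 °C with an 8–11-point dose range (0.001 pM–10 μM). Phospho-S6K1 Thr389 quantified by ELISA as an mTORC1 activity read-out, with DMSO as negative control.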

Series [3] in a line: In vitro microsomal metabolic stability, CD-1 mouse liver microsomes. It counts as in vitro ADME. Particulars: for CLint scaled at 1 µM / microsomal CLint at 1 µM: CD-1, mouse, mouse liver microsomes, pH 7.2; for half-life at 1 µM: CD-1, pH 7.2, 0.5 mg/ml protein, NADPH; for half-life at 1 µM / Remaining (T = 60 min) / Remaining (T = NCF60 min): Mouse liver microsomes; for Remaining (T = 60 min): with NADPH; for Remaining (T = NCF60 min): without NADPH regenerating system; for Remaining (T = 60 min) / Remaining (T = NCF60 min): 60 min. The essentials: (§1)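 Compounds at 1 μM incubated at 37° C with pooled CD-1 mouse or human liver microsomes (0.5 mg/mL protein) plus NADPH regenerating system in 50 mM potassium phosphate, pH 7.2, 3.3 mM MgCl2; sampled at 0–60 min, 60-min no-NADPH control. Parent loss by LC/MS/MS analyte/IS peak-area ratio, n=1.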
For orientation: Microsomes from liver hold many membrane-bound enzymes, among them those of drug oxidation.

Series [4] in a line: In vitro microsomal metabolic stability, human liver microsomes. It counts as in vitro ADME. Particulars: for Remaining (T = 60 min) / Remaining (T = NCF60 min) / half-life at 1 µM: Human liver microsomes; for Remaining (T = 60 min): with NADPH; for Remaining (T = NCF60 min): without NADPH regenerating system; for Remaining (T = 60 min) / Remaining (T = NCF60 min): 60 min; for CLint scaled at 1 µM / microsomal CLint at 1 µM: human, human liver microsomes; for CLint scaled at 1 µM / microsomal CLint at 1 µM / half-life at 1 µM: pH 7.2; for half-life at 1 µM: 0.5 mg/ml protein, NADPH. The procedure, abridged:
as §1

The nature of series [5]: Pharmacokinetic studies in male CD-1 mice (plasma, IV and PO). Particulars: male. It counts as in vivo, mouse. As for the experimental part:
Animal experiments were carried out at Wuxi AppTec. Male 6-8 weeks old CDI mice were obtained from Hilltop Labs. Following arrival at Wuxi AppTec, mice were housed in animal rooms with environmental control (temperature: 20 to 26° C.; lighting: 12 hour light/dark cycle). Mice were fed with certified pellet diet (Certified Rodent Diet #5002 by LabDiet). Water was provided to the animals ad libitum. Mice were acclimated to the facility for at least 3 days prior to starting experiments.
Appropriate amount of test article formulated in 5% ethanol, 5% Tween-80 and 5% PEG-400, 85% water. Formulation was prepared on the day of dosing and dosed within 2 hours following preparation of formulations. Dose accuracy was determined by LC-MS/MS.
Dose formulation(s) were administered following facility SOPs. Dose volumes were determined individually prior to dosing based on animals' body weights.
About 40 μL of blood samples were collected via peripheral veins (e.g. saphenous veins) at each pre-defined time point. Blood samples were collected into tubes containing K2EDTA as anti-coagulant and kept on ice until centrifugation.
Blood samples were centrifuged at 4° C., 3000 g for 5 min within half an hour of collection. Plasma was transferred into polypropylene tubes or 96-well plates, promptly frozen on dry ice and stored at −70±10° C. until analysis by LC-MS/MS.
Test compound concentration in mouse plasma was determined with LC-MS/MS method using a calibration curve with at least 6 non-zero calibration standards.
The pharmacokinetics (PK) of the test article was analyzed using Phoenix WinNonlin software (version 8.3) and non-compartmental analysis model. Derived PK parameters include, but not limited to, C0, CLp, Vdss, Cmax, Tmax, T1/2, AUC(0-t), AUC(0-inf), MRT(0-t), MRT(0-inf) and % F (bioavailability).

pIC50: −log10 of the molar value.

Turning to `CO[C@@H]1CC(C[C@@H](C)[C@@H]2CC[C@H](C)/C=C(\C)[C@@H](O)[C@@H](OC)C(=O)[C@H](C)C[C@H](C)/C=C/C=C/C=C(\C)C(Nc3ccccc3)CC3CC[C@@H](C)[C@@](O)(O3)C(=O)C(=O)N3CCCC[C@H]3C(=O)O2)CC[C@H]1O` (stereo partly drawn) [Compound 26, (3S,6S,7E,9R,10R,12R,14S,15E,17E,19E,23S,26R,27R,34aS)-9,27-dihydroxy-3-((R)-1-((1S,3R,4R)-4-hydroxy-3-methoxycyclohexyl)propan-2-yl)-10-methoxy-6,8,12,14,20,26-hexamethyl-21-(phenylamino)-5,6,9,10,12,13,14,21,22,23,24,25,26,27,32,33,34,34a-octadecahydro-3H-23,27-epoxypyrido[2,1-c][1]oxa[4]azacyclohentriacontine-1,11,28,29(4H,31H)-tetraone], in series [1], the pIC50 is 9.26 and the “extent of inhibition of S6K1 (Thr389) phosphorylation” value (“extent of inhibition of S6K1” for short) is “complete inhibition”. The “IC50 of inhibition of S6K1 (Thr389)” value in series [2] (FKBP12 knock-out 293T cells) is recorded as “not measurable/detectable”. In series [2], the “inhibition of S6K1 (Thr389) phosphorylation in the absence of FKBP12 (in words)” value (shortened to “inhibition of S6K1 … (in words)”) is listed as “not inhibit S6K1 at any tested concentrations” and the “selectivity for FKBP12 compared with RAD001 (in words)” value (“selectivity for FKBP12” for short) is given as “more selective to FKBP12 compared with RAD001”. Moreover, in series [3], the intrinsic clearance (CLint scaled) at 1 µM was 41.9 mL/min/kg, the microsomal CLint at 1 µM stood at 10.6 µL/min/mg, the half-life at 1 µM came to 2.18 h and the “Remaining (T = 60 min)” value is 69.80%. Also, in series [3], the “Remaining (T = NCF60 min)” value was 92.30%. Moreover, in series [4], the “Remaining (T = 60 min)” value stood at 6.60%, the “Remaining (T = NCF60 min)” value worked out at 92.80%, the intrinsic clearance (CLint scaled) at 1 µM stood at 80.9 mL/min/kg and the intrinsic metabolic clearance (microsomal CLint) at 1 µM was found to be 89.9 µL/min/mg. In series [4], the half-life at 1 µM is 0.257 h. Also, the clearance in series [5] (CD-1, plasma, mouse, IV 2 mg/kg, read-out: CI(mL/min/kg), compounds clearance following IV administration) worked out at 2.31 mL/min/kg. For the same molecule, the Vd in series [5] (CD-1, plasma, mouse, IV 2 mg/kg, read-out: Vdss (L/kg), volume of distribution following IV administration) came out at 0.828 L/kg. The molecule also gave a bioavailability in series [5] (CD-1, plasma, mouse, PO 20 mg/kg vs IV 2 mg/kg) of 28.5%. In series [5] (CD-1, mouse plasma, IV 2 mg/kg, read-out: IV T1/2 (converted)), the half-life was 5.25 h. Also, the peak level in series [5] (CD-1, mouse plasma, PO 20 mg/kg) (Cmax) was 4120 ng/mL. Also, the concentration at 8 h in series [5] (CD-1, mouse plasma, PO 20 mg/kg, read-out: Compound concentration at 8-hour, PO administration) is 1320 ng/mL. The concentration at 24 h in series [5] (CD-1, mouse plasma, PO 20 mg/kg, read-out: Compound concentration at 24-hour, PO administration) worked out at 184 ng/mL.
Take `CO[C@@H]1C[C@H](C[C@@H](C)[C@@H]2CC[C@H](C)/C=C(\C)[C@@H](O)[C@@H](OC)C(=O)[C@H](C)C[C@H](C)/C=C/C=C/C=C(\C)C(Nc3cccc(OC(F)(F)F)c3)C[C@@H]3CC[C@@H](C)[C@@](O)(O3)C(=O)C(=O)N3CCCCC3C(=O)O2)CC[C@H]1O` (stereo partly drawn) [Compound 58, (3S,6S,7E,9R,10R,12R,14S,15E,17E,19E,23S,26R,27R,34aS)-9,27-dihydroxy-3-((R)-1-((1S,3R,4R)-4-hydroxy-3-methoxycyclohexyl)propan-2-yl)-10-methoxy-6,8,12,14,20,26-hexamethyl-21-((3-(trifluoromethoxy)phenyl)amino)-5,6,9,10,12,13,14,21,22,23,24,25,26,27,32,33,34,34a-octadecahydro-3H-23,27-epoxypyrido[2,1-c][1]oxa[4]azacyclohentriacontine-1,11,28,29(4H,31H)-tetraone]: in series [1], the pIC50 was 8.53, the “fold lower potency compared with RAD001 (by IC50)” value came to 35 fold and the “extent of inhibition of S6K1” value is recorded as “near complete inhibition”. Further, in series [2], the “inhibition of S6K1 … (in words)” value was “inhibited the mTORC1 signaling in a dose dependent manner” and the “selectivity for FKBP12” value is reported as “relatively not FKBP12 selective”. Further, in series [3], the CLint scaled at 1 µM amounted to 25.3 mL/min/kg, the microsomal CLint at 1 µM was 6.4 µL/min/mg, the half-life at 1 µM was 3.62 h and the “Remaining (T = 60 min)” value is on record as 83%. The “Remaining (T = NCF60 min)” value in series [3] was found to be 96%. Moreover, in series [4], the “Remaining (T = 60 min)” value worked out at 55%, the “Remaining (T = NCF60 min)” value is 93%, the CLint scaled at 1 µM stood at 18 mL/min/kg and the intrinsic clearance (microsomal CLint) at 1 µM worked out at 20 µL/min/mg. In series [4], the half-life at 1 µM was 1.16 h.
`CCOc1cccc(NC2C[C@@H]3CC[C@@H](C)[C@@](O)(O3)C(=O)C(=O)N3CCCCC3C(=O)O[C@H]([C@H](C)C[C@@H]3CC[C@@H](O)[C@H](OC)C3)CC[C@H](C)/C=C(\C)[C@@H](O)[C@@H](OC)C(=O)[C@H](C)C[C@H](C)/C=C/C=C/C=C/2C)c1` (stereo partly drawn) [Compound 59, (3S,6S,7E,9R,10R,12R,14S,15E,17E,19E,23S,26R,27R,34aS)-21-((3-ethoxyphenyl)amino)-9,27-dihydroxy-3-((R)-1-((1S,3R,4R)-4-hydroxy-3-methoxycyclohexyl)propan-2-yl)-10-methoxy-6,8,12,14,20,26-hexamethyl-5,6,9,10,12,13,14,21,22,23,24,25,26,27,32,33,34,34a-octadecahydro-3H-23,27-epoxypyrido[2,1-c][1]oxa[4]azacyclohentriacontine-1,11,28,29(4H,31H)-tetraone]: in series [1], the negative-log IC50 (pIC50) was 9.77, the “fold lower potency compared with RAD001 (by IC50)” value is reported as 2 fold and the “extent of inhibition of S6K1” value is on record as “near complete inhibition”. Moreover, in series [2], the “inhibition of S6K1 … (in words)” value is “inhibited the mTORC1 signaling in a dose dependent manner” and the “selectivity for FKBP12” value is given as “relatively not FKBP12 selective”. Moreover, in series [3], the intrinsic metabolic clearance (CLint scaled) at 1 µM was found to be 40.8 mL/min/kg, the microsomal CLint at 1 µM was 10.3 µL/min/mg, the half-life at 1 µM was 2.25 h and the “Remaining (T = 60 min)” value is 76%. The “Remaining (T = NCF60 min)” value in series [3] came to 112%. Also, in series [4], the “Remaining (T = 60 min)” value was found to be 47%, the “Remaining (T = NCF60 min)” value was 102%, the CLint scaled at 1 µM came to 22.2 mL/min/kg and the microsomal CLint at 1 µM turned out to be 24.7 µL/min/mg. Moreover, the half-life at 1 µM in series [4] came to 0.937 h.

For orientation: pIC50 means −log10 of the IC50, conventionally taken in molar units. A higher pIC50 goes with a low IC50. By CLint scaled is commonly meant a measure of how fast metabolising enzymes remove a compound, apart from limits set by blood flow. The low end stands for greater metabolic stability, the high end for faster metabolism. The term microsomal CLint denotes the rate of metabolic loss divided by the concentration. A word on the bioavailability: it is dose-corrected exposure relative to a reference, in per cent. Broadly, the Cmax is the highest concentration seen after dosing.
